# Results: US10391150B2, “Treatments for migraine and related disorders” (The University of Chicago, priority 2011, dated 2019)
# Entries after “also recorded” stand apart in the source; their conditions may differ. Where two headings read alike, the source gives them in different places.
# Experiments:
# [1] = tested on: CA3 area evoked excitability; type: cell-based, rat; design: key to evoked excitability response rating: a normal field potential (FP; left) was rated “1”; a FP that included stimulus-related bursting activity (center) was rated “2”; a stimulus that resulted in spreading depression (right) was rated is a “3”; details: for evoked excitability versus control: H2O2 exposure
# Method: FIGS. 11a-11g IGF-1 decreased CA3 oxidative stress (OS) and its related hyperexcitability. […] Relative evoked excitability was determined as a sum of responses seen (e.g., responses of “2” and a “3” yielded an overall excitability score of five). […] (FIGS. 11d-e) Exemplary images of control (FIG. 11d) slice culture OS compared to increased slice OS induced by exposure to menadione (FIG. 11e). Calibration bar, 200 Dotted boxes indicate CA3 areas of interest used for relative OS quantifications (f and g).
# TNF-α mRNA = TNF-α mRNA after SD in slice cultures; type: cell-based, rat; details: two hours after SD evoked every 7-9 minutes for an hour
# Text: This prompted the inventors to examine whether insulin could reduce SD susceptibility by increasing CA3 pyramidal neuron bursting. The inventors induced SD trans-synaptically in rat HSC using electrical stimuli (100 μs pulses @ 10 Hz for 1 s) ranging from 1 to 10,000 nC in order to determine SD threshold in sham and experimental groups (Pusic et al., 2011). Results were based on n≥3-6/group. […] This insulin dose approximates the pharmacological levels seen in humans treated with nasal insulin. […] The inventors hypothesized that the effect of insulin occurred through IGF-1 receptor cross-talk.
# After an hour of SD, slices were allowed to recover for 2 hours and then harvested for total RNA isolation and PCR amplification of cytokine targets. […] Next, dilution curve amplifications of primers were checked to be sure primers produced uniform amplification differences. For example, optimal amplifications show a uniform increase in Ct thresholds. In contrast, amplifications are not uniform with defective primers.
# These positive samples were used for PCR array screening. Next, PCR array technology was used as a means more sensitive than traditional gene chips to look for evidence of T-cells in adult hippocampal slice cultures. The gene expression screen for inflammatory cytokine changes was completed by RT^2 Profiler™ PCR Arrays.
substance,measurement,setting,value
Insulin-like growth factor 1 [IGF-1],evoked excitability versus control,[1]; without or with IGF-1 pretreatment for 3 days,abrogated; also recorded: non-significant difference from control
same,evoked excitability versus control,"[1]; without or with acute IGF-1, 30 minutes after H2O2",abrogated
same,CA3 area evoked excitability,[1]; IGF-1 exposure alone,no significant impact
same,evoked excitability response rating,[1]; IGF-1 exposure alone,1
same,TNF-α mRNA levels,TNF-α mRNA,did not involve a change in TNF-α mRNA levels
